Measured values taken from ChEMBL document CHEMBL1138897, “Function of the alkyl side chains of Deltalac-acetogenins in the inhibitory effect on mitochondrial complex I (NADH-ubiquinone oxidoreductase)” (Bioorg Med Chem Lett, 2006).

Target: Mitochondrial complex I; NADH oxidoreductase (Bos taurus, UniProt P25708+P52505)
Experiment: Inhibition of bovine mitochondrial NADH-ubiquinone oxidoreductase by NADH oxidase assay
Format: protein-complex assay

Chain of Mitochondrial complex I; NADH oxidoreductase (P25708 21-464 limits assumed, other chains not shown): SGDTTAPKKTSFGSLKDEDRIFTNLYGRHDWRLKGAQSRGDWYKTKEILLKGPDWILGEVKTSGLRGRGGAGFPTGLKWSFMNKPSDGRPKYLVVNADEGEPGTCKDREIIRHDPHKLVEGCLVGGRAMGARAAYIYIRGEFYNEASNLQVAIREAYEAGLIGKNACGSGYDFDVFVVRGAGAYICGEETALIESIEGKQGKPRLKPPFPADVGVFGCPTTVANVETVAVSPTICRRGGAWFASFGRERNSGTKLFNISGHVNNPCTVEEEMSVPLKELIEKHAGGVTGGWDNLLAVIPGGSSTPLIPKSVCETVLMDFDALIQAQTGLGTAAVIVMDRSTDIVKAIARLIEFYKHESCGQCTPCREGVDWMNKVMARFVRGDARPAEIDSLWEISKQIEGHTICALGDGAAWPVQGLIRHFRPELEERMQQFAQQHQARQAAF

| Compound | IC50 [nM] |
| --- | --- |
| CCCCCCCCCC[C@@H](O)[C@H]1CC[C@H]([C@H]2CC[C@H]([C@H](O)CCCCCC)O2)O1 | 3.2 |
| CCCCCCCC[C@@H](O)[C@H]1CC[C@H]([C@H]2CC[C@H]([C@H](O)CCCCCCCC)O2)O1 | 45 |
| CCCCCCCCCCCC[C@@H](O)[C@H]1CC[C@H]([C@H]2CC[C@H]([C@H](O)CCCCCCCC)O2)O1 | 7.5 |
| CCCCCCCCCCCC[C@@H](O)[C@H]1CC[C@H]([C@H]2CC[C@H]([C@H](O)CCCCCCCCCCCC)O2)O1 | 9 |
| CCCCCCCCCCCCCC[C@@H](O)[C@H]1CC[C@H]([C@H]2CC[C@H]([C@@H](C)O)O2)O1 | 410 |
| CCCCC(CC)CCC[C@@H](O)[C@H]1CC[C@H]([C@H]2CC[C@H]([C@H](O)CCCC(CC)CCCC)O2)O1 (some centres not stated) | 870 |
| CCCCCCCCCC[C@@H](O)[C@H]1CC[C@H]([C@H]2CC[C@H]([C@@H](C)O)O2)O1 | 280 |
| CCCCCCCCCCCCCC[C@@H](O)[C@H]1CC[C@H]([C@H]2CC[C@H]([C@H](O)CCCCCC)O2)O1 | 34 |
| CCCCCCCCCC[C@@H](O)[C@H]1CC[C@H]([C@H]2CC[C@H]([C@H](O)CCCC(CCC)CCC)O2)O1 | 27 |
| CCCC(CCC)CCC[C@@H](O)[C@H]1CC[C@H]([C@H]2CC[C@H]([C@H](O)CCCC(CCC)CCC)O2)O1 | 1500 |
| CCCCCCCCCC[C@@H](O)[C@H]1CC[C@H]([C@H]2CC[C@H]([C@H](O)CC)O2)O1 | 45 |
| CCCCCCCCCC[C@@H](O)[C@H]1CC[C@H]([C@H]2CC[C@H]([C@H](O)CCCCCCCCCC)O2)O1 [dleta-lac-Acetogenin] | 1.7 |
